Test results from patent publication US5801178A, “Aniline derivative having polyunsaturated fatty acid residue and use thereof” (Nippon Shoji Kaish Ltd., priority 1995, dated 1998).

Legend:
[1] = Reduction of cholesterol in blood of cholesterol-loaded rats; assay type: in vivo, Male slc:SD (SPF) rats; details: serum total cholesterol; 90 mg/kg/day orally, five days; average of 8 rats; control taken as 100%
Text: Reduction of cholesterol in blood of rats
Male slc:SD (SPF) rats (4 weeks of age weighing 70-90 g, Japan SLC Inc.) were randomly divided into 8 per group and bred for 3 days on a normal diet (solid diet for test animals, MF, manufactured by Oriental Yeast CO., LTD.). Then, the aforementioned diet supplemented with 5% cholesterol, 10% olive oil and 0.5% cholic acid was freely fed for 10 days. During the last five days, the test compound (Compounds 3-6, 8, 11 and 12) suspended in 0.5% aqueous methylcellulose solution was forcibly administered orally once a day in a dose of 10 ml/kg which contains 90 mg/kg/day of the test compound (total dose of the test compound being 450 mg/kg). The rats were fasted for 16 hours after the final administration and etherized. The blood was taken from the abdominal aorta, and serum was separated by centrifugation to determine the total cholesterol content in the serum. The control group was administered with 0.5% aqueous methylcellulose solution instead of the test compound suspended in 0.5% aqueous methylcellulose solution.
* is an average of 8 rats per group based on the cholesterol content in
blood of control which was taken as 100%.

[2] = target: T1, ACAT derived from human macrophage (Homo sapiens, UniProt P35610); assay: Inhibitory activity against ACAT derived from human macrophage (microsomes of TPA-differentiated U937 cells); assay type: biochemical; details: for Selectivity: Table 1, rat liver ACAT IC50 / human macrophage ACAT IC50; for IC50: human macrophage (U937/TPA) microsome, pH 7.4, 37° C., 30 minutes
T1 construct: Using, as an enzyme source, microsomal fractions prepared in the manner described below under Preparation of Microsome from U937 cells; endogenous in cells; host or cells: U937 cells differentiated with TPA, microsomal fraction
T1 sequence (P35610 1-550): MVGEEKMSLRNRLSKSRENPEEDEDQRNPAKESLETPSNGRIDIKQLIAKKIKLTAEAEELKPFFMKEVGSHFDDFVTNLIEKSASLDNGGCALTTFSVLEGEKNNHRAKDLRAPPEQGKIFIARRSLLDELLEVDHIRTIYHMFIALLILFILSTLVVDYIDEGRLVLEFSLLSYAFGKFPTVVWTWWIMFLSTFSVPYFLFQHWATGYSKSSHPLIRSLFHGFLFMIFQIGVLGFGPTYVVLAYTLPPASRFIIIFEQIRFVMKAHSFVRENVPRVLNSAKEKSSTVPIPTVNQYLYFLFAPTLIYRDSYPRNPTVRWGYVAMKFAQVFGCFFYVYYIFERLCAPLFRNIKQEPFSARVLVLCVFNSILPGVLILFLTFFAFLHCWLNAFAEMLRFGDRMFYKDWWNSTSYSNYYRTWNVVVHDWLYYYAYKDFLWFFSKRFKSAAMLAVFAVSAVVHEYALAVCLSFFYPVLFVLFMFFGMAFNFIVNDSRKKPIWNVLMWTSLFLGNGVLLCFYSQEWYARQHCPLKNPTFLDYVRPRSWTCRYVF
Experimental: Inhibitory activity against ACAT derived from human macrophage
(§1) Using, as an enzyme source, microsomal fractions prepared in the manner described below under Preparation of Microsome from U937 cells [human monocyte-derived cells known to differentiate into macrophages by the addition of TPA (12-O-tetradecanoylphorbol 13-acetate)] differentiated with TPA, the inhibitory activity against ACAT in the microsome fractions was determined as in the following. The compound of the present invention was dissolved in dimethyl sulfoxide and used as a sample solution. [1-^14 C] […] Ethanol (1 ml) was added to stop the reaction, and n-hexane (4.5 ml) was added. The reaction mixture was centrifuged at 2,000 rpm for 2 minutes and the upper n-hexane layer was separated and recovered, whereby cholesterol oleate (reaction product) was extracted. n-Hexane was evaporated with a nitrogen gas and the residue was re-dissolved in n-hexane (50 μl), which was used as a sample for thin-layer chromatography. […] After developing, the spot of cholesterol oleate was colored with iodine. The spot was cut out and dissolved in a xylene scintillator (Aquasol-2, Daiichi Pure Chemicals Co., Ltd.). The amount of cholesterol oleate was determined with a liquid scintillation counter.
The cells thus scraped and the culture solution were centrifuged at 3,000 rpm for 5 minutes, and the cell fractions obtained as precipitate were once freezed at -70° C. and preserved. The cells preserved at -70° C. were thawed and homogenized at 4° C. in a Teflon homogenizer. The homogenate was centrifuged at 12,000 g for 15 minutes. The precipitate fractions containing nuclea and mitochondria were removed and the obtained supernatant was further centrifuged at 100,000 g for 60 minutes. The supernatant was discarded, and the obtained precipitate fractions were suspended in 150 mM potassium phosphate buffer (pH 7.4) and used as a microsomal fraction.

[3] = system: ACAT derived from rat liver; assay: Inhibitory activity against ACAT derived from rat liver microsome; assay type: biochemical; details: pH 7.4, 37° C., 30 minutes
Experimental: Inhibitory activity against ACAT derived from rat liver microsome
as §1, with “source, the” for “source,”, “prepared from rat liver” for “prepared”, “of Microsome,” for “of Microsome from U937 cells [human monocyte-derived cells known to differentiate into macrophages by the addition of TPA (12-O-tetradecanoylphorbol 13-acetate)] differentiated with TPA,”, “re-dissolved dissolved” for “re-dissolved”, “determined using” for “determined with”
The liver was removed from a fasted rat and thoroughly perfused with 0.25M sucrose solution. The liver was weighed, minced with scissors or razor and placed in a Teflon homogenizer. The liver was homogenized with 9 volumes [9 ml per g (wet weight) of liver] of 0.25M sucrose solution or 50 mM Tris-HCl buffer (pH 7.5) containing 0.25M sucrose and 5 mM MgCl2. The homogenate was centrifuged at 8,000-10,000 g for 10-15 minutes. The obtained supernatant was centrifuged at 105,000 g for 60-90 minutes. The sediment obtained from this centrifugation was suspended in 150 mM potassium phosphate buffer (pH 7.4) to give a microsomal fraction.

[4] = Acute toxicity, oral, mice; assay type: in vivo, Male slc:ICR mice
Experimental: Male slc:ICR mice (4 weeks of age, Japan SLC Inc.) were bred for 7 days on a normal diet (solid diet for test animals, Labo MR stock-SLC, manufactured by Japan SLC Inc.). Then, the mice were fasted for 16 hours and divided into 5 per group. The mice were forcibly administered orally with the test compound (Compounds 4, 5 and 9-12) dissolved in corn oil. The mice were further bred on a normal diet for 14 days to observe acute toxicity.

Structure (SMILES) | Reduction of cholesterol in cholesterol-loaded rats, %* [1] [%] | Selectivity [2] | IC50 [2] [µM] | IC50 [3] [µM] | minimum lethal dose ([4]; mouse, in vivo, po, 20160 min) | minimum lethal dose ([4]; single oral administration in corn oil, mice, 14 days observation)
CCC=CCC=CCC=CCC=CCC=CCC=CCCC(=O)Nc1c(C)cc(C)cc1C [Compound 6, N-(2,4,6-trimethylphenyl)-4,7,10,13,16,19-docosahexaenamide] | 68 | > 3333 | 0.15 | > 500 | – | –
CCC=CCC=CCC=CCC=CCC=CCC=CCCC(=O)Nc1c(F)cc(F)cc1F [Compound 4, N-(2,4,6-trifluorophenyl)-4,7,10,13,16,19-docosahexaenamide] | 59 | > 806 | 0.62 | > 500 | ≥ 2,000 mg/kg | –
CCC=CCC=CCC=CCC=CCC=CCCCC(=O)Nc1c(F)cc(F)cc1F [Compound 3, N-(2,4,6-trifluorophenyl)-5,8,11,14,17-eicosapentaenamide] | 71 | > 1852 | 0.27 | > 500 | – | –
CCC=CCC=CCC=CCC=CCC=CCCCC(=O)Nc1c(C(C)C)cccc1C(C)C [Compound 11, N-(2,6-diisopropylphenyl)-5,8,11,14,17-eicosapentaenamide] | 78 | 247 | 0.0097 | 2.4 | – | –
CCC=CCC=CCC=CCC=CCC=CCC=CCCC(=O)Nc1c(C)cccc1C [Compound 8, N-(2,6-dimethylphenyl)-4,7,10,13,16,19-docosahexaenamide] | 77 | 264 | 0.28 | 73.9 | – | –
CCC=CCC=CCC=CCC=CCC=CCCCC(=O)Nc1c(C)cc(C)cc1C [Compound 5, N-(2,4,6-trimethylphenyl)-5,8,11,14,17-eicosapentaenamide] | 57 | 47.9 | 0.9 | 43.1 | – | ≥ 2,000 mg/kg
